Experimental data from US20130039952A1, “CALCIPOTRIOL MONOHYDRATE NANOCRYSTALS” (LEO PHARMA A/S, priority 2009, published 2013).
Each block holds one compound with its values, some of them ahead of it.

What was measured:
[1] = Particle size by dynamic light scattering; type: physicochemical; settings: Zetasizer Nano ZS90, after high pressure homogenization
Excerpt: The term “particle size distribution” is intended to mean the span between the smallest and largest calcipotriol monohydrate crystal as determined by dynamic light scattering (also known as photon correlation spectroscopy) using a Zetasizer Nano ZS or ZS90 according to the manufacturer's instructions (available from Malvern Instruments, UK). Dynamic light scattering determines the size of solid particles suspended in a liquid by illuminating the particles with a laser and analysing the intensity fluctuations in the scattered light resulting from the Brownian motions of the particles in the liquid. Intensity fluctuations are correlated to particle size in that larger particles move more slowly than smaller particles, i.e. the intensity fluctuation is slower.

[2] = DSC analysis of the amount of amorphous calcipotriol; type: physicochemical; settings: two batches, DSC at 100, 300 and 500° C./min under N2
Experimental: The amount of amorphous calcipotriol generated in this method was determined on two batches of calcipotriol nanocrystals prepared by the method using DSC analysis at a heating rate of 100° C., 300° C. and 500° C./min. under a N2 atmosphere. The instrument used for the analysis was a Perkin Elmer DSC 8500.

[3] = test system: gene encoding cathelicidin; test: Cathelicidin gene activation in reconstructed human epidermis, ointments; type: cell-based; settings: 5% vs 10% or 15% by weight of glycerol in the composition
Excerpt: In psoriasis, the level of cathelicidin is increased in lesional skin of psoriasis patients. […] This finding has been utilized to develop an assay in which the uptake and biological activity of calcipotriol in human keratinocytes from the tested compositions has been determined by measuring the level of induction of the gene encoding cathelicidin.
Compositions A, C and D prepared as described in Example 2 above were applied topically in triplicate on reconstructed human epidermis consisting of normal human keratinocytes cultured for 12 days on 0.5 cm^2 polycarbonate filters (available from SkinEthic® Laboratories, Nice, France) in an amount of 10 μl. The tissue was treated for two days followed by separation of the epidermis from the polycarbonate filter and snap-frozen in liquid nitrogen. RNA was extracted from the cells and cDNA synthesized by conventional procedures. qPCR was then performed using the following assays from Applied Biosystems: CAMP Hs0018038_ml and GAPDH Hs99999905_ml. The expression levels of cathelicidin were normalized to GAPDH and a relative quantification was made by comparison with Daivonex® ointment.

[4] = test system: IL-1α; test: Release of IL-1α with glycerol in a calcipotriol ointment; settings: 5%, 10% and 15% by weight of glycerol in a calcipotriol ointment
[5] = M. Hannuksela et al., Contact Dermatitis 1, 1975; cited from earlier work

- mean particle size [1]: 350-400 nm
- particle size distribution [1]: 200-600 nm
Structure (SMILES): C=C1/C(=C\C=C2/CCC[C@]3(C)[C@@H]([C@H](C)/C=C/[C@@H](O)C4CC4)CC[C@@H]23)C[C@@H](O)C[C@@H]1O [calcipotriol monohydrate nanocrystals, Calcipotriol monohydrate]
- amount of amorphous calcipotriol [2]: only insignificant amounts of amorphous calcipotriol

Structure (SMILES): OCC(O)CO [glycerol]
- expression of cathelicidin / biological activity of calcipotriol [3]: potentiating the biological activity of calcipotriol
- release of IL-1α [4]: reduce the release of IL-1α in a dose-dependent manner

Structure (SMILES): CC(O)CO (stereo not drawn) [propylene glycol]
- number of irritant reactions [5]: 12.5%
